Data as given in patent US6410558B1, “Fungicides for the control of take-all disease of plants” (Monsanto Technology LLC, priority 1991, dated 2002).

Test system: Gaeumannomyces graminis var. tritici (Ggt)
Experiment: In vitro Assay: mycelial growth of Ggt on minimal media agar plates containing test compound
Format: cell-based
Details: dark, 19-20° C., 4 to 5 days, diameter of mycelial growth; for inhibition at 0.1 ppm / inhibition at 1 ppm / inhibition at 10 ppm: Gaeumannomyces graminis; for inhibition at 0.1 ppm / In vitro (ppm) 0.1, Percent Inhibition: 0.1 ppm in minimal media agar; for inhibition at 0.1 ppm: read-out: In vitro (ppm) 0.1, Percent Inhibition; for inhibition at 1 ppm / In vitro (ppm) 1, Percent Inhibition: 1 ppm in minimal media agar; for inhibition at 1 ppm: read-out: In vitro (ppm) 1, Percent Inhibition; for inhibition at 10 ppm / In vitro (ppm) 10, Percent Inhibition: 10 ppm in minimal media agar; for inhibition at 10 ppm: read-out: In vitro (ppm) 10, Percent Inhibition
Method: The test compounds (0.25 mL of an appropriate stock solution in acetone) are incorporated into 25 mL minimal media agar [(prepared by autoclaving a solution of 17.5 g Czapek Dox broth (Difco), 7.5 g purified agar or Bacto-agar (Difco), and 500 mL distilled/deionized water, and then adding 50 μL of 1 mg/mL thiamine hydrochloride and 50 μL of 1 mg/mL biotin in 5% ethanol] and plates are prepared.
Each plate is inoculated by placing in a triangular shape three 4-mm plugs of Gaeumannomyces graminis var. tritici (Ggt) grown on the minimal media agar described above. The plates are incubated in the dark at 19-20° C. for 4 to 5 days. The growth of the fungus is measured as the diameter of the mycelial growth. The result is expressed as Percent Inhibition, calculated as [1-[(mm growth on treated plate −4)/(mm growth on control plate −4)]]×100.

Compound	inhibition at 0.1 ppm [%]	inhibition at 1 ppm [%]	inhibition at 10 ppm [%]	In vitro (ppm) 0.1, Percent Inhibition	In vitro (ppm) 1, Percent Inhibition	In vitro (ppm) 10, Percent Inhibition [%]
CCCSC(=O)c1c(Cl)cccc1[Si](C)(C)C [Example 79, 2-Chloro-6-(trimethylsilyl)-benzenecarbothioic acid, S-propyl ester]	12	12	65	–	–	–
CCN(CC)C(=O)c1c([Si](C)(C)C)coc1[Si](C)(C)C [Example 250, N,N-Diethyl-2,4-bis(trimethylsilyl)-3-furancarboxamide]	< 0	< 0	41	–	–	–
C[Si](C)(C)c1cccc(Cl)c1NC(=O)C(Cl)(Cl)Cl [Example 175, 2,2,2-Trichloro-N-[2-chloro-6-(trimethylsilyl)phenyl]acetamide]	35	48	60	–	–	–
CC(C)N(C(=O)c1c(Cl)cccc1[Si](C)(C)C)C(C)C [Example 126, 2-Chloro-N,N-bis(1-methylethyl)-6-(trimethylsilyl)benzamide]	15	4	93	–	–	–
C/C=C/NC(=O)c1c(Cl)cccc1[Si](C)(C)C [Example 113, (E)-2-Chloro-N-1-propenyl-6-(trimethylsilyl)benzamide]	< 0	26	96	–	–	–
C[Si](C)(C)c1cccc(Cl)c1C(=O)NCc1ccncc1 [Example 145, 2-Chloro-N-(4-pyridinylmethyl)-6-(trimethylsilyl)benzamide]	< 0	< 0	27	–	–	–
CCc1cccc([Si](C)(C)C)c1C(=O)N(CC)CC [Example 44, N,N,2-Triethyl-6-(trimethylsilyl)benzamide]	< 0	< 0	39	–	–	–
CCN(CC)C(=O)c1cccc(F)c1[Si](C)(C)C(C)(C)C [Example 9, 2-[(1,1-Dimethylethyl)dimethylsilyl]-N,N-diethyl-3-fluorobenzamide]	3	< 0	71	–	–	–
3-N,N-diethyl-2-(trimethylsilyl)benzamide [Example 15]	–	–	–	N (If the calculation resulted in “0” or less, as compared to the untreated control, a “N” is shown to indicate no control.)	N (If the calculation resulted in “0” or less, as compared to the untreated control, a “N” is shown to indicate no control.)	44
CCN(C(C)=O)C(=O)c1c(Cl)cccc1[Si](C)(C)C [Example 47, N-Acetyl-2-chloro-N-ethyl-6-(trimethylsilyl)benzamide]	< 0	< 0	70	–	–	–
C[Si](C)(C)c1cc(Cl)sc1C(=O)NCCOS(C)(=O)=O [Example 265, 5-Chloro-N-[2[(methylsulfonyl)oxy]ethyl]-3-(trimethylsilyl)-2-thiophenecarboxamide]	5	14	100	–	–	–
CN(CC=Cc1ccccc1)C(=O)c1c(Cl)cccc1[Si](C)(C)C [Example 105, 2-Chloro-N-methyl-N-(3-phenyl-2-propenyl)-6-(trimethylsilyl)benzamide]	3	37	84	–	–	–
CCNC(=O)c1c([Si](C)(C)C)ccc(C#N)c1Cl [Example 229, 2-Chloro-3-cyano-N-ethyl-6-(trimethylsilyl)benzamide]	< 0	28	88	–	–	–
CCNC(=O)c1c([Si](C)(C)C)ccc(C(=O)OC)c1Cl [Example 244, 2-Chloro-3-[(ethylamino)carbonyl]-4-(trimethylsilyl)benzoic acid, methyl ester]	10	20	53	–	–	–
CCN(CC)C(=O)c1c(C(=O)OC)ccc(F)c1[Si](C)(C)C [Example 42, 2-[(Diethylamino)carbonyl]-4-fluoro-3-(trimethylsilyl)benzoic acid, methyl ester]	< 0	< 0	30	–	–	–
CCN=C(SCC)c1c(Cl)cccc1[Si](C)(C)C [Example 169, 2-Chloro-N-ethyl-6-(trimethylsilyl)benzenecarboximidothioic acid, ethyl ester]	< 0	31	100	–	–	–
C[Si](C)(C)c1cccc(Cl)c1C(=O)N1CC=CCC1 [Example 148, 1-[2-Chloro-6-(trimethylsilyl)benzoyl]-1,2,3,6-(tetrahydro)pyridine]	–	–	–	N (If the calculation resulted in “0” or less, as compared to the untreated control, a “N” is shown to indicate no control.)	N (If the calculation resulted in “0” or less, as compared to the untreated control, a “N” is shown to indicate no control.)	53

Compound	inhibition at 0.1 ppm [%]	inhibition at 1 ppm [%]	inhibition at 10 ppm [%]	In vitro (ppm) 0.1, Percent Inhibition	In vitro (ppm) 1, Percent Inhibition	In vitro (ppm) 10, Percent Inhibition [%]
CCN(CC)C(=O)c1c(I)ccc(F)c1[Si](C)(C)C [Example 40, N,N-Diethyl-3-fluoro-6-iodo-2-(trimethylsilyl)benzamide]	< 0	< 0	53	–	–	–
COc1cc(CNC(=O)c2c(Cl)cccc2[Si](C)(C)C)cc(OC)c1OC [Example 140, 2-Chloro-N-[(3,4,5-trimethoxyphenyl)methyl]-6-(trimethylsilyl)benzamide]	19	19	81	–	–	–
CCNC(=O)c1cc([N+](=O)[O-])ccc1[Si](C)(C)C [Example 214, N-Ethyl-5-nitro-2-(trimethylsilyl)benzamide]	3	6	77	–	–	–
CCN(CC)C(=S)c1ccc(C)c(F)c1[Si](C)(C)C [Example 75, N,N-Diethyl-3-fluoro-4-methyl-2-(trimethylsilyl)thiobenzamide]	5	26	31	–	–	–
C[Si](C)(C)c1cccc(Cl)c1C(=O)NCc1cccc([N+](=O)[O-])c1 [Example 141, 2-Chloro-N-[(3-nitrophenyl)-methyl]-6-(trimethylsilyl)-benzamide]	19	64	100	–	–	–
C[Si](C)(C)c1cccc(I)c1C(=O)NC1CC1 [Example 209, N-Cyclopropyl-2-iodo-6-(trimethylsilyl)benzamide]	28	90	100	–	–	–
Cc1ccccc1NC(=O)c1c(Br)cccc1[Si](C)(C)C [Example 120, 2-Bromo-N-(2-methylphenyl)-6-(trimethylsilyl)benzamide]	< 0	26	100	–	–	–
CCNC(=O)c1c(F)cccc1SC(C)(C)C [Example 90]	–	–	–	6%	34%	89
CCNC(=O)c1cccn1C[Si](C)(C)C [Example 253, N-Ethyl-1-[(trimethylsilyl)methyl]-1H-pyrrole-2-carboxamide]	< 0	14	62	–	–	–
CCN(CC)C(=O)c1c(F)cccc1[S+]([O-])C(C)(C)C (stereo not drawn) [Example 195, N,N-Diethyl 2-[(1,1-dimethylethyl)sulfinyl]-6-fluorobenzamide]	35	29	56	–	–	–
CCNC(=O)c1c(Cl)cccc1C(C)(C)C [Example 285, 2-Chloro-N-ethyl-6-(1,1-dimethylethyl)benzamide]	< 0	50	75	–	–	–
CCNC(=O)c1sncc1[Si](C)(C)C [Example 259, N-Ethyl-4-(trimethylsilyl)-5-isothiazolecarboxamide]	19	11	80	–	–	–
CC1CCCC(C)N1C(=O)c1c(Cl)cccc1[Si](C)(C)C (stereo not drawn) [Example 131, N-[2-Chloro-6-(trimethylsilyl)benzoyl]-2,6-dimethylpiperidine]	< 0	6	3	–	–	–
CCNC(=O)c1c(F)cccc1[S+]([O-])C(C)(C)C (stereo not drawn) [Example 194, 2-[(1,1-Dimethylethyl)sulfinyl]-N-ethyl-6-fluorobenzamide]	82	100	100	–	–	–
C[Si](C)(C)c1cccc(Cl)c1C(=O)NC(c1ccccc1)n1nnc2ccccc21 (stereo not drawn) [Example 170, N-(1H-Benzotriazol-1-ylphenylmethyl)-2-chloro-6-(trimethylsilyl)benzamide]	12	9	63	–	–	–
CCCCCCC(C)N(CC)C(=O)c1c(Cl)cccc1[Si](C)(C)C (stereo not drawn) [Example 96, 2-Chloro-N-ethyl-N-(1-methylheptyl)-6-(trimethylsilyl)benzamide]	7	15	48	–	–	–
